Key:
prostate cancer cells = conditions: cited from earlier work
[1] = Solid tissue and prostate gland drug quantification 55 days post-implantation; conditions: for liver level: average; for whole prostate gland level: centre transverse section not included; for level in 5 mm punch biopsies surrounding device implants: prostate tissue within ~5 mm of device
Description: (§1) In this study, three canines, at least fifteen months old, were employed. […] An 18-gauge brachytherapy needle (OD 1.27 mm) was used for device implantation. Clinical observations and body weight were recorded.
(§2) 55 days post-implantation, study animals were euthanized and underwent gross necropsy. […] Prostate glands were trimmed and cut in three section perpendicular to the urethra: a cranial (rostral) section, a 3-5 mm transverse section, and a caudal section. […] The transverse piece in its entirety was sent for histopathological evaluation.

in vivo = conditions: male, dog
Description: as §1, §2

[2] = Plasma drug quantification after implantation of two devices into canine prostate; set-up: species or system canines; conditions: male, dog, in vivo
Description: Clinical observations and body weight were recorded.
Placement of devices was confirmed by transrectal ultrasound during implantation and 1, 7, 14, and 28 days post-implantation.
Note that the plasma levels as shown in FIGS. 6A and 6B are in micrograms for the oral dose while the scale is in ng/mL for the device plasma levels.

concentration at 55 day (in vivo; level in 5 mm punch biopsies surrounding device implants)	concentration at 55 day (in vivo; liver level)	concentration at 55 day (in vivo; whole prostate gland level)	time to plasma steady state [2]	Compound	IC50 (prostate cancer cells)	level in prostate tissue within ~5 mm of the device (molar) [1]	whole prostate gland level (molar) [1]	liver level [1]	whole prostate gland level [1]	level in 5 mm punch biopsies surrounding device implants [1]
–	–	–	–	C[C@](O)(CS(=O)(=O)c1ccc(F)cc1)C(=O)Nc1ccc(C#N)c(C(F)(F)F)c1 [R-bicalutamide]	~1 µM	1.623 ± 0.562 µM	196.6 ± 23.5 nM	28 ± 9 ng/g	86 ± 10 ng/g	698 ± 242 ng/g
–	–	–	–	C[C@@](O)(CS(=O)(=O)c1ccc(F)cc1)C(=O)Nc1ccc(C#N)c(C(F)(F)F)c1 [S-bicalutamide]	–	–	–	19 ± 7 ng/g	87 ± 11 ng/g	727 ± 259 ng/g
1430 ± 501 ng/g	47 ± 16 ng/g	172 ± 21 ng/g	~4 days	CC(O)(CS(=O)(=O)c1ccc(F)cc1)C(=O)Nc1ccc(C#N)c(C(F)(F)F)c1 (stereo not shown) [bicalutamide]	–	–	–	–	–	–
